Test results from paper PMC9936496, “Azobenzene-Based Amino Acids for the Photocontrol of Coiled-Coil Peptides” (Bioconjugate Chemistry, 2023).
Read-outs that look alike come from different tables or passages of the source. Blank lines part the entries; values can stand above or below the molecule they belong to. Starred links: 1 amine or outer side, 2 acyl side, 3 side chain; linkers in the order of their positions; H or OH if unused. Non-standard residues stand in square brackets, D forms with d. Residues, ends and D or L forms follow the SMILES beside them. X1 = O=C([C@@H](N[*:1])c1ccc(N=Nc2ccccc2)cc1)[*:2]

Key:
[1] = set-up: method as in 2 sources, ref 29 = [29]; PMID 16287231; doi:10.1021/bc049724g; Nakayama K.; Endo M.; Majima T. A Hydrophilic Azobenzene-Bearing Amino Acid for Photochemical Control of a Restriction Enzyme BamHI . Bioconjugate Chem. 2005 , 16 , 1360 – 1366 . 10.1021/bc049724g . ||| ref 33 = [33]; PMID 31495713; doi:10.1016/j.chembiol.2019.08.006; Kneuttinger A. C.; Straub K.; Bittner P.; Simeth N. A.; Bruckmann A.; Busch F.; Rajendran C.; Hupfeld E.; Wysocki V. H.; Horinek D.; et al. Light Regulation of Enzyme Allostery through Photo; conditions: cited from earlier work
[2] = cited from earlier work
E3GY = test: CD thermal unfolding curves fitted to a dimeric coiled-coil binding model; conditions: coiled coil with E3GY; for Kf (folding constant) / Kd: binding model at 20 °C; for Kd: read-out: Ku (unfolding constant)
Description: CD melting curves measured at different concentrations were fitted to a coiled-coil binding model (Figures S2 and S3).[39]
CD spectra were recorded on a Jasco J-815 CD spectrometer fitted with a Peltier temperature controller. Spectra were recorded in a 2 mm quartz cuvette at 20 °C using either PBS or low-salt buffer (2 mM NaCl, 10 mM phosphate) at pH 7.4. Spectra were recorded between 190 and 280 nm with 1 nm intervals at a scan rate of 100 nm/min with five subsequent spectra averaged to minimize noise. […] Thermal melting curves were generated by recording θ222nm between 5 and 90 °C at a speed of 1 °C/min. If irradiated samples were used, samples were reilluminated every 30 min. Melting curves were measured at four different concentrations and fitted using the Fitdis software package.[39]

[3] = format: physicochemical; conditions: K3-APgly in PBS versus 10 in MeCN
Description: For the potential application of K3-APgly in an active system, for example, for membrane fusion, the stability of the photoswitch to repeated light exposures (photocycling) is required. […] Finally, the peptide was irradiated with the 340 nm PSS and allowed to thermally relax, showing 65% recovery in 69 h.
Figure 4 Photocycling of K3-APgly between the dark-adapted, 340 and 435 nm PSS (left), thermal relaxation of the peptide after […] (middle) and distribution of the absorbance in the different states during cycling (right).

[4] = HPLC quantification of trans/cis isomer ratio at photostationary states; format: physicochemical; conditions: measurements repeated three times
Description: As azobenzene photoswitches based on phenylglycine are not known in the literature, the photoswitching behavior of Fmoc-APgly (10) was analyzed first in order to assess its suitability as a photoswitch (Figure 3A–C). […] The largest ratio of […]-to-cis isomers via photoisomerization was achieved through irradiation with 385 nm light (83.2 ± 0.2% […]), with higher wavelengths showing very similar distributions.
(§1) Figure 3 HPLC analysis of the photoswitching behavior of Fmoc-APgly, and the effect of azobenzene isomerization in peptide K3-APgly. (A) Chromatography traces of Fmoc-APgly in the dark state and after irradiation with different wavelengths of light, complete traces can be found in Figure S5. (B) Thermal relaxation of Fmoc-APgly from cis to trans as followed by HPLC. (C) Percentage of the trans and cis isomers in solution at the different PSSs; error bars indicate difference in deviation between repeat samples. (D) UV–vis spectra showing the spectra of K3-APgly in the dark and after irradiation with 340 or 435 nm light. (E) CD spectra showing the effect of photoisomerization on the structure of K3-Apgly by itself and as a coiled-coil with E3GY. […] Illumination and relaxation studies of the amino acid were performed in MeCN at 20 °C. Peptide spectra were recorded at 20 °C in PBS with [peptide] = 50 μM. […]
(§2) Analytical HPLC was performed using a Shimadzu Prominence-i LC-2030C 3D system fitted with a 4.6 × 50 mm Phenomenex Kinetex Evo C18 column. The isomeric ratio of 10 was quantified using a linear gradient of 10–90% MeCN in water containing 0.1% TFA as buffer. For each measurement, 2 μL of a 200 mM solution of 10 was injected, and measurements were repeated three times for accuracy.

[5] = Thermal relaxation of Fmoc-APgly from cis to trans followed by HPLC; format: physicochemical; conditions: after irradiation with 340 nm light, in MeCN at 20 °C
From the text: as §1, §2

[6] = 340 nm irradiated state (predominantly cis)
[7] = dark state (predominantly trans)

Compound: N[C@@H](Cc1ccc(N=Nc2ccccc2)cc1)C(=O)O [APhe1, Phenylazo-phenylalanine]
PSS, cis isomer ([1]; using a LED light source): 89% | PSS, cis isomer ([1]; using a mercury lamp): 79% | reported half-life of thermal relaxation [2]: 26.67 h

Compound: N[C@@H](Cc1ccc(N=Nc2ccc(C(=O)O)cc2)cc1)C(=O)O [APhe2]
PSS, cis isomer ([1]; using a mercury lamp): 81% | reported half-life of thermal relaxation [2]: 35 h

Compound: CC[C@H](C)[C@H](NC(=O)[C@H](CCCCN)NC(C)=O)C(=O)N[C@@H](C)C(=O)N[C@@H](C)C(=O)N[C@@H](CC(C)C)C(=O)N[C@@H](CCCCN)C(=O)N[C@@H](CCC(=O)O)C(=O)N[C@@H](CCCCN)C(=O)N[C@H](C(=O)N[C@@H](C)C(=O)N[C@@H](C)C(=O)N[C@@H](CC(C)C)C(=O)N[C@@H](CCCCN)C(=O)N[C@@H](CCC(=O)O)C(=O)N[C@@H](CCCCN)C(=O)N[C@H](C(=O)N[C@@H](C)C(=O)N[C@@H](C)C(=O)N[C@@H](CC(C)C)C(=O)N[C@@H](CCCCN)C(=O)N[C@@H](CCC(=O)O)C(N)=O)[C@@H](C)CC)c1ccc(N=Nc2ccccc2)cc1 [K3-APgly] (Ac-KIAALKEK[X1]AALKEKIAALKE-NH2)
Kf (folding constant) (E3GY; [6]): 2.97 × 10^5 M^–1 | Kd (E3GY; [6]): 3370 nM | Kf (folding constant) (E3GY; [7]): 1.38 × 10^6 M^–1 | Kd (E3GY; [7]): 720 nM | dark/340 nm PSS (fold difference in folding constant / binding affinity) (E3GY; ratio dark state to 340 nm PSS, 20 °C): 4.65 | thermal relaxation, times slower than that observed for 10 in MeCN [3]: 1.6

trans isomer ([4]; dissolved in MeCN, kept under dark conditions): 94.2 ± 0.2% | cis isomer ([4]; irradiated with 340 nm light, MeCN, 20 °C): 91.3 ± 0.6% | trans isomer ([4]; irradiation with 385 nm light, MeCN, 20 °C): 83.2 ± 0.2% | half-life of thermal relaxation cis to trans [5]: 28.17 h | half-life of thermal relaxation cis to trans ([5]; same value in hours): ≈ 28 h
Compound: O=C(N[C@H](C(=O)O)c1ccc(N=Nc2ccccc2)cc1)OCC1c2ccccc2-c2ccccc21 [compound 10, N-Fmoc-4-(phenylazo)-L-phenylglycine]
